Some test systems named below: HCC-2998 colon; RPMI-8226 leukemia; RXF 393 renal; OVCAR-8 ovarian; SK-MEL-28 melanoma; OVCAR-3 ovarian; ACHN renal; SN12C renal; A549 NSCLC; SNB-75 CNS; 786-0 renal; HOP-62 NSCLC; K-562 leukemia.
Common to all, as to test: growth of human tumour cells (NCI), 48 h

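Values below derive from 48-hour exposures of cells grown in 96-well plates, with endpoints linearly interpolated between the two concentrations bracketing the appropriate inhibition level. TGI is the concentration that stops growth completely.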

`CC#CC(O)(C(=O)OC1CC2CCC(C1)N2C)C1CCCC1` (stereo unspecified): the TGI in the test with HCC-2998 colon, in the test on RPMI-8226 leukemia, with RXF 393 renal, in the test with OVCAR-8 ovarian, with SK-MEL-28 melanoma and in the test with OVCAR-3 ovarian was greater than 100 µM each time. Further, the TGI in the test on ACHN renal, in the test on SN12C renal, in the test on A549 NSCLC, in the test on SNB-75 CNS, in the test with 786-0 renal and in the test with HOP-62 NSCLC was greater than 100 µM each time. Besides, in the test with K-562 leukemia, the TGI was greater than 100 µM.

For the compound `Cn1c2ccccc2c(=O)c2[nH]c3ccccc3c21`, the TGI in the test on HCC-2998 colon is greater than 100 µM; with RPMI-8226 leukemia, greater than 100 µM; with RXF 393 renal it was greater than 100 µM; in the test with OVCAR-8 ovarian it was greater than 100 µM; with SK-MEL-28 melanoma, 59.5 µM; in the test with OVCAR-3 ovarian, greater than 100 µM. In addition, the TGI was greater than 100 µM in the test on ACHN renal; greater than 100 µM in the test on SN12C renal; greater than 100 µM with A549 NSCLC; 99.8 µM in the test with SNB-75 CNS; greater than 100 µM in the test with 786-0 renal; greater than 100 µM in the test with HOP-62 NSCLC. This compound also returned a TGI with K-562 leukemia greater than 100 µM.

The values are drawn from PubChem BioAssay (NCI).
